Like-named read-outs stand apart in the source and are kept apart here.
Experiments:
AHR [1] = molecular target: T1, AHR (Homo sapiens, UniProt P35869); assay: In vitro assay 1: antagonism in human cell line (AHR transactivation, firefly luciferase reporter, kynurenic acid prestimulated); format: cell-based; settings: AHR Antagonism Human IC50 [M]
T1 construct: U87 MG glioblastoma cells (ATCC #HTB-14) endogenously expressing AHR; endogenous in cells; host or cells: U87 MG glioblastoma cells (ATCC #HTB-14)
T1 sequence (P35869 11-848): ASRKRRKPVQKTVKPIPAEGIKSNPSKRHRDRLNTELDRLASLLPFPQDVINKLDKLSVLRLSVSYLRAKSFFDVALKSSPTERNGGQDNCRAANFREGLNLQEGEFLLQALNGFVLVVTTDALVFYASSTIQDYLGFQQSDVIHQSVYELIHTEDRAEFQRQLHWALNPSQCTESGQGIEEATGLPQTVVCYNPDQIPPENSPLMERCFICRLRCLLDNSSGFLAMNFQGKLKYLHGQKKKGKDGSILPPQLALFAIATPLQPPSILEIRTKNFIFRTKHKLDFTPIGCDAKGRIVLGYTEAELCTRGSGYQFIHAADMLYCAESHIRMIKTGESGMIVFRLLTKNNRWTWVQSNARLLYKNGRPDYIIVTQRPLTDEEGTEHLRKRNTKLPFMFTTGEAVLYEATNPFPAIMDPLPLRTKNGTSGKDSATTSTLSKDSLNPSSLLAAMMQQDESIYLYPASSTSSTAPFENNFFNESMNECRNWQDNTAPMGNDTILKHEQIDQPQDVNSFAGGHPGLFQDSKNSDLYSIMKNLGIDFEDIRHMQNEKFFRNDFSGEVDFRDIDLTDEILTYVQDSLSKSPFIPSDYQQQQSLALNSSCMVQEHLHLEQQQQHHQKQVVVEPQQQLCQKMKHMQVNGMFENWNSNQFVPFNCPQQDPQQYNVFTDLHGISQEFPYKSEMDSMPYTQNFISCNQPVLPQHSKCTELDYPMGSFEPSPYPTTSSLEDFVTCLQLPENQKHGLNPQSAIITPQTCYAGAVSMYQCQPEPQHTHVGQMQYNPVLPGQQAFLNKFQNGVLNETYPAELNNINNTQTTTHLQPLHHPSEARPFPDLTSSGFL
Outline: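 U87 MG glioblastoma cells with endogenous AHR, stably carrying a DRE-driven firefly luciferase reporter and constitutive Renilla reporter, prestimulated with kynurenic acid before compound addition. Firefly and Renilla read by dual luciferase; Renilla flags toxicity; normalized to controls (150 μM kynurenic acid + 5 μM staurosporine as full inhibition); repeat values averaged or median.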

AHR [2] = molecular target: T2, AHR (Mus musculus, UniProt P30561); assay: In vitro assay 3: antagonism in mouse cell line (AHR transactivation, firefly luciferase reporter, kynurenic acid prestimulated); format: cell-based; settings: 200 μM kynurenic acid, 20 hours, read-out: AHR Antagonism Mouse IC50
T2 sequence (P30561 1-848 P471L/N533S/M589L): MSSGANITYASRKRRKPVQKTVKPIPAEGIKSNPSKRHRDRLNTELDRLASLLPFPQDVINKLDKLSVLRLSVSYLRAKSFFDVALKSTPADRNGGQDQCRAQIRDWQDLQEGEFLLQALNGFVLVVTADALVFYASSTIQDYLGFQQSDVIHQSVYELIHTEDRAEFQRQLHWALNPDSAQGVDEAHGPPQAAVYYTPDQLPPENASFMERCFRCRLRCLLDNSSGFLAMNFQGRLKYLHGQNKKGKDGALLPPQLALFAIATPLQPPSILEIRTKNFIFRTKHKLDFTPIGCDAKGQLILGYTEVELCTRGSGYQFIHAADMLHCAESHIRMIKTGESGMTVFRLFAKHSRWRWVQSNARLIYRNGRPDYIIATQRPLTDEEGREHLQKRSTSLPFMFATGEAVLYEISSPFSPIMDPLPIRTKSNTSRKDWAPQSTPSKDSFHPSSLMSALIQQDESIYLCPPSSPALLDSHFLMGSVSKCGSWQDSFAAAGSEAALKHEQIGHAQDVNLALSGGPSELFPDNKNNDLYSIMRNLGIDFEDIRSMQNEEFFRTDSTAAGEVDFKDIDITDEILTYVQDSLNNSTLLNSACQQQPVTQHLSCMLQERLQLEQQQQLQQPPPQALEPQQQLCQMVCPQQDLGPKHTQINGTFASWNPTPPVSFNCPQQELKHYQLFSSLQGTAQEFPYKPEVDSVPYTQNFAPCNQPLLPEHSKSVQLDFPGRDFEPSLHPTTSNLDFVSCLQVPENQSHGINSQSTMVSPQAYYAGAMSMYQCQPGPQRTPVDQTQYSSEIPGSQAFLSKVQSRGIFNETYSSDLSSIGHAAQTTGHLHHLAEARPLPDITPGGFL
Outline: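 Mouse cells stably carrying a DRE-driven, AHR-inducible firefly luciferase reporter were prestimulated with the endogenous agonist kynurenic acid before compound addition. Luciferase activity was measured by luminescence and normalized to positive and negative controls, with cells lacking kynurenic acid serving as full-inhibition control. Repeat tests are reported as mean or median.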

[3] = Hepa 1c1c7 cells, firefly luciferase reporter

SMILES | IC50 (AHR [1]; firefly luciferase reporter) [M] | IC50 (AHR [2]; [3]) [nM] | IC50 (AHR [1]) [M] | IC50 (AHR [2]; mouse Hepa 1c1c7 cells) [nM]
Cn1cc(-c2nc3c4cccc(Br)c4nc(N[C@@H]4CSCCNC4=O)n3n2)cn1 [Example 837, (6S)-6-{[7-bromo-2-(1-methyl-1H-pyrazol-4-yl)[1,2,4]triazolo[1,5-c]quinazolin-5-yl]amino}-1,4-thiazepan-5-one] | 7.6e-10 | 1.81 | – | –
COc1cccc(-c2nc3c4ccccc4nc(N[C@@H](C(N)=O)c4ccccc4)n3n2)c1 [Example 89, (2R)-2-{[2-(3-methoxyphenyl)[1,2,4]triazolo[1,5-c]quinazolin-5-yl]amino}-2-phenylacetamide] | – | – | 1.29e-08 | 12.8
Cc1cc(-c2nc3c4ccccc4nc(N[C@H]4CCCCNC4=O)n3n2)cs1 [Example 353] | – | – | 2.36e-07 | 27.4
CC(C)Oc1ccc(-c2nc3c4ccccc4nc(N[C@@H]4CCCCNC4=O)n3n2)cc1 [Example 613, (3R)-3-[(2-{4-[(propan-2-yl)oxy]phenyl}[1,2,4]triazolo[1,5-c]quinazolin-5-yl)amino]azepan-2-one] | – | – | 1.17e-09 | 0.799
O=C1NCCCC[C@H]1Nc1nc2c(Br)cccc2c2nc(-c3cnn(C4CCC4)c3)nn12 [Example 824, (3R)-3-{[7-bromo-2-(1-cyclobutyl-1H-pyrazol-4-yl)[1,2,4]triazolo[1,5-c]quinazolin-5-yl]amino}azepan-2-one] | 9.98e-10 | 0.845 | – | –
O=C1NCCCC[C@H]1Nc1nc2ccccc2c2nc(-c3cnn(CCO)c3)nn12 [Example 601, (3R)-3-({2-[1-(2-hydroxyethyl)-1H-pyrazol-4-yl][1,2,4]triazolo[1,5-c]quinazolin-5-yl}amino)azepan-2-one] | – | – | 2.96e-07 | 158
Cc1cscc1-c1nc2c3ccccc3nc(N[C@@H]3CCCCNC3=O)n2n1 [Example 538, (3R)-3-{[2-(4-methylthiophen-3-yl)[1,2,4]triazolo[1,5-c]quinazolin-5-yl]amino}azepan-2-one] | – | – | 8.79e-10 | 0.646
Cn1cncc1-c1nc2c3ccccc3nc(N[C@@H]3CCCCNC3=O)n2n1 [Example 610, (3R)-3-{[2-(1-methyl-1H-imidazol-5-yl)[1,2,4]triazolo[1,5-c]quinazolin-5-yl]amino}azepan-2-one] | – | – | 2.44e-07 | 86.5
COc1ccc(-c2nc3c4cccc(S(C)(=N)=O)c4nc(N[C@@H]4CCCCNC4=O)n3n2)cc1 (mixture of isomers) [Example 853, (3R)-3-{[7-(S-methanesulfonimidoyl)-2-(4-methoxyphenyl)[1,2,4]triazolo[1,5-c]quinazolin-5-yl]amino}azepan-2-one] | 2.04e-09 | 68.6 | – | –
Cc1ccccc1-c1nc2c3ccccc3nc(NC3CCNC3=O)n2n1 (single isomer, unassigned) [Example 50, 3-{[2-(2-methylphenyl)[1,2,4]triazolo[1,5-c]quinazolin-5-yl]amino}pyrrolidin-2-one] | – | – | 1.06e-08 | 20.4
CCn1cc(-c2nc3c4cccc(S(C)(=O)=O)c4nc(N[C@@H]4CCCCNC4=O)n3n2)c(C)n1 [Example 847, (3R)-3-{[2-(1-ethyl-3-methyl-1H-pyrazol-4-yl)-7-(methanesulfonyl)[1,2,4]triazolo[1,5-c]quinazolin-5-yl]amino}azepan-2-one] | 3.02e-09 | 60.1 | – | –
COc1cccc(-c2nc3c4ccccc4nc(N[C@H]4CCCCNC4=O)n3n2)c1 [Example 76, (3S)-3-{[2-(3-methoxyphenyl)[1,2,4]triazolo[1,5-c]quinazolin-5-yl]amino}azepan-2-one] | – | – | 4.82e-08 | 4.57
Cn1cc(-c2nc3c4cccc(S(C)(=O)=O)c4nc(N[C@@H]4CNCCNC4=O)n3n2)cn1 [Example 937, (6R)-6-{[7-(methanesulfonyl)-2-(1-methyl-1H-pyrazol-4-yl)[1,2,4]triazolo[1,5-c]quinazolin-5-yl]amino}-1,4-diazepan-5-one] | > 2e-05 | > 20000 | – | –
O=C1NCC[C@H]1Nc1nc2ccccc2c2nc(-c3cccc(OC(F)(F)F)c3)nn12 [Example 310, (3R)-3-({2-[3-(trifluoromethoxy)phenyl][1,2,4]triazolo[1,5-c]quinazolin-5-yl}amino)pyrrolidin-2-one] | – | – | 9.98e-08 | 60.7
COc1ccc(-c2nc3c4cccc(S(C)(=N)=O)c4nc(N[C@@H]4CCCCNC4=O)n3n2)cc1 (single isomer, unassigned) [Example 855] | 2.28e-09 | 26.1 | – | –
CCn1nc(C)c(-c2nc3c4cccc(C(F)(F)F)c4nc(N[C@@H]4CCCCNC4=O)n3n2)c1C [Example 738, (3R)-3-{[2-(1-ethyl-3,5-dimethyl-1H-pyrazol-4-yl)-7-(trifluoromethyl)[1,2,4]triazolo[1,5-c]quinazolin-5-yl]amino}azepan-2-one] | – | – | 3.4e-09 | 1.03
CCCNC(=O)[C@H](CC)Nc1nc2c(Br)cccc2c2nc(-c3ccc(Cl)cc3OC(F)(F)F)nn12 [Example 685, (2S)-2-({7-bromo-2-[4-chloro-2-(trifluoromethoxy)phenyl][1,2,4]triazolo[1,5-c]quinazolin-5-yl}amino)-N-propylbutanamide] | – | – | > 2e-06 | 142
COc1cccc(-c2nc3c4ccccc4nc(N[C@H](CO)C(N)=O)n3n2)c1 [Example 79, N^2-[2-(3-methoxyphenyl)[1,2,4]triazolo[1,5-c]quinazolin-5-yl]-D-serinamide] | – | – | 4.9e-08 | 52.2
CCCCNC(=O)[C@H](C)Nc1nc2ccccc2c2nc(-c3cccc(C#N)c3)nn12 [Example 441, N-butyl-N^2-[2-(3-cyanophenyl)[1,2,4]triazolo[1,5-c]quinazolin-5-yl]alaninamide] | – | – | 1.36e-07 | 29.3
O=C1NCCCC[C@H]1Nc1nc2ccccc2c2nc(-c3ccnc(F)c3)nn12 [Example 638, (3R)-3-{[2-(2-fluoropyridin-4-yl)[1,2,4]triazolo[1,5-c]quinazolin-5-yl]amino}azepan-2-one] | – | – | 4e-09 | 10.4
Cn1cc(-c2nc3c4cccc(Br)c4nc(N[C@H]4CNCCNC4=O)n3n2)cn1 [Example 983, (6S)-6-{[7-bromo-2-(1-methyl-1H-pyrazol-4-yl)[1,2,4]triazolo[1,5-c]quinazolin-5-yl]amino}-1,4-diazepan-5-one] | 8.18e-08 | 189 | – | –
COc1ccc(-c2nc3c4cccc(OCCC(C)(C)OC)c4nc(N[C@@H]4CCCCNC4=O)n3n2)cc1 [Example 996, (3R)-3-{[7-(3-methoxy-3-methylbutoxy)-2-(4-methoxyphenyl)[1,2,4]triazolo[1,5-c]quinazolin-5-yl]amino}azepan-2-one] | 2.8e-07 | 78.1 | – | –
COc1ccc(-c2nc3c4cccc(OC5CC5)c4nc(N[C@@H]4CCCCNC4=O)n3n2)cc1 [Example 999, (3R)-3-{[7-(cyclopropyloxy)-2-(4-methoxyphenyl)[1,2,4]triazolo[1,5-c]quinazolin-5-yl]amino}azepan-2-one] | 6.91e-09 | 4.27 | – | –

— US20230113037A1 (Bayer Aktiengesellschaft, priority 2019, published 2023)
